The target in one test is 15-PGDH (Homo sapiens (Human), UniProt P15428). Description: Inhibition test of compounds on 15-PGDH enzyme. The test is classed as biochemical. The procedure:
15-PGDH (R&D Systems, Cat. No.: 5660-DH-010) was prepared to twice the final concentration, i.e., 30 nM, using Assay Buffer (50 mM Tris-HCl, pH 7.5, 0.01vol % Tween 20). The obtained mixture was then added to a 384-well white plate (Cisbio Bioassays, Cat. No. 66PL384025) at 8 μL/well. Negative control wells (with Assay Buffer only and without enzyme) were set. The compound was then prepared to 4 times the final concentration using Assay Buffer, i.e., diluted 3-fold to 10 concentrations starting from 4000 nM. The obtained mixture was added to the above white plate at 4 μL/well, mixed well, centrifuged at 1000 rpm for 1 minute, and incubated at 25° C. for 10 minutes. Both positive control wells (with 15-PGDH only) and negative control wells (without 15-PGDH) were set. A mixture of NAD^+(Select, Cat. No. S2518) and PGE2 (R&D Systems, Cat. No.: 2296/10) was then prepared using Assay Buffer. NAD^+ and PGE2 were prepared to four times their final concentrations, i.e., 2 mM and 0.12 mM, respectively, using Assay Buffer. The obtained mixture was then added to the above white plate at 4 μL/well, mixed well, centrifuged at 1000 rpm for 1 minute, and incubated at 25° C. for 30 minutes for the reaction. The fluorescence was detected at an excitation wavelength of 340 nm and an emission wavelength of 485 nm using instrument TECAN SPARK 20M. The IC50 value was calculated using four-parameter fitting with GraphPad Prism 8.0.

The subject of a further test is A549 cells. Description: Effect of compounds on PGE2 levels in A549 cell supernatant. The test is classed as cell-based. The note with it: 20 nM compound, about 12 hours, after IL-10 stimulation; ELISA. The procedure: A549 cells (Procell, Wuhan) were cultured in F12K+10% FBS. The cells with good status in log phase were selected for the experiment, digested, counted, and inoculated into a 24-well plate at 8000 cells per well. The cells were cultured in a 37° C., 5% CO2 incubator overnight. After adherence, the cells were transferred to a culture medium containing 0.5% FBS and cultured for about 10 hours. IL-10 was added to each well (final concentration of 20 ng/mL, 1 mL per well), and a control group (without IL-10) was set up. After stimulation with IL-10 for about 24 hours, the cell culture medium of each well was aspirated and discarded, and the wells were gently washed with fresh culture medium containing 0.5% FBS. 400 μL of culture medium containing the compound of different concentrations (20 nM and 2500 nM) was added to each well and cultured for about 12 hours. The supernatant was collected and PGE2 was detected using ELISA kit (R&D Systems, Cat. No.: KGE004B).

SMILES strings stand for the structures.

Sequence of 15-PGDH (P15428 whole entry): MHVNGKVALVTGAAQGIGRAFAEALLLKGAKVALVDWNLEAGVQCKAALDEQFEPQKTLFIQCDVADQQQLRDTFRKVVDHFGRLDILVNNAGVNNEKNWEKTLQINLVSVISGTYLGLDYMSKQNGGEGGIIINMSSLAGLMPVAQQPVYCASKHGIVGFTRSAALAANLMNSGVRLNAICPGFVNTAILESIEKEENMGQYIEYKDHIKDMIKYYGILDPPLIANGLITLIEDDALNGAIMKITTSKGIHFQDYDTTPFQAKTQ

In turn, `Cn1nc2cc(N3CC4CC4c4cc(C(=O)N5CCC[C@H](CF)C5)cnc43)ccn2c1=O` (stereo partly drawn) [Compound I-31, 7-(6-((S)-3-(fluoromethyl)piperidine-1-carbonyl)-1,1a,2,7b-tetrahydro-3H-cyclopropa[c][1,8]naphthyridin-3-yl)-2-methyl-[1,2,4]triazolo[4,3-a]pyridin-3(2H)-one] showed an IC50 on 15-PGDH of 4.1 nM. Also, the “Fold increase of PGE2 in A549 cell supernatant” value (shortened to “Fold increase of PGE2”) in the test with A549 cells is 2.90. `CCn1nc2cc(N3CC4CC4c4cc(C(=O)N5CCC(F)(F)CC5)cnc43)ccn2c1=O` (stereo not drawn) [Compound I-32, 7-(6-(4,4-difluoropiperidine-1-carbonyl)-1,1a,2,7b-tetrahydro-3H-cyclopropa[c][1,8]naphthyridin-3-yl)-2-ethyl-[1,2,4]triazolo[4,3-a]pyridin-3(2H)-one] gave an IC50 against 15-PGDH of 6.3 nM. Also, the “Fold increase of PGE2” value in the test with A549 cells was found to be 3.7. Regarding `[2H]C([2H])([2H])n1nc2cc(N3CC4CC4c4cc(C(=O)N5CCC(F)(F)CC5)cnc43)ccn2c1=O` (single isomer, unassigned) [Compound I-25B], on 15-PGDH, the concentration for half-maximal inhibition (IC50) was found to be 3.78 nM. `Cn1nc2cc(N3CC4CC4c4cc(C(=O)N5CC(C)(F)C5)cnc43)ccn2c1=O` (stereo not drawn) [Compound I-20, 7-(6-(3-fluoro-3-methylazetidine-1-carbonyl)-1a,2-dihydro-1H-cyclopropa[c][1,8]naphthyridin-3(7bH)-yl)-2-methyl-[1,2,4]triazolo[4,3-a]pyridin-3(2H)-one] registered an IC50 against 15-PGDH of 2.83 nM. Further, in the test with A549 cells, the “Fold increase of PGE2” value is recorded as 2.0.

`CNC(=O)c1ccc(N2CC3CC3c3cc(C(=O)N4CCC(F)(F)CC4)cnc32)cc1F` (stereo not drawn) [Compound I-9, 4-(6-(4,4-difluoropiperidine-1-carbonyl)-1,1a,2,7b-tetrahydro-3H-cyclopropa[c][1,8]naphthyridin-3-yl)-2-fluoro-N-methylbenzamide] gave an IC50 against 15-PGDH of 9.51 nM. With `Cn1nc2cc(N3CC4CC4c4cc(C(=O)N5CCCC(C(F)F)C5)cnc43)ccn2c1=O` (stereo not drawn) [Compound I-23, 7-(6-(3-(difluoromethyl)piperidine-1-carbonyl)-1,1a,2,7b-tetrahydro-3H-cyclopropa[c][1,8]naphthyridin-3-yl)-2-methyl-[1,2,4]triazolo[4,3-a]pyridin-3(2H)-one], half-maximal inhibition against 15-PGDH (IC50) was put at 4.26 nM. The “Fold increase of PGE2” value in the test with A549 cells is recorded as 2.93. `N#Cc1ccc(N2CC3CC3c3cc(C(=O)N4CCC(F)(F)CC4)cnc32)cc1` (stereo not drawn) [Compound I-11, 4-(6-(4,4-difluoropiperidine-1-carbonyl)-1,1a,2,7b-tetrahydro-3H-cyclopropa[c][1,8]naphthyridin-3-yl)benzonitrile] showed a half-inhibitory concentration (IC50) on 15-PGDH of 3.8 nM. For the same compound, in the test with A549 cells, the “Fold increase of PGE2” value is listed as 1.88.

`[2H]C([2H])([2H])n1nc2cc(N3CC4CC4c4cc(C(=O)N5CCC(F)(F)CC5)cnc43)ccn2c1=O` (single isomer, unassigned) [Compound I-25A] returned a half-inhibitory concentration (IC50) at 15-PGDH of 15.8 nM. On 15-PGDH, `CN1Cc2cc(N3CC4CC4c4cc(C(=O)N5CCC(F)(F)CC5)cnc43)cnc2C1=O` (stereo not drawn) [Compound I-2, 3-(6-(4,4-difluoropiperidine-1-carbonyl)-1,1a,2,7b-tetrahydro-3H-cyclopropa[c][1,8]naphthyridin-3-yl)-6-methyl-5,6-dihydro-7H-pyrrolo[3,4-b]pyridin-7-one] showed an IC50 of 5.15 nM. The “Fold increase of PGE2” value in the test with A549 cells worked out at 5.23. Take `Cn1nc2cc(N3CC4CC4c4cc(C(=O)N5CCCC(F)(F)C5)cnc43)ccn2c1=O` (stereo not drawn) [Compound I-24, 7-(6-(3,3-difluoropiperidine-1-carbonyl)-1,1a,2,7b-tetrahydro-3H-cyclopropa[c][1,8]naphthyridin-3-yl)-2-methyl-[1,2,4]triazolo[4,3-a]pyridin-3(2H)-one]: on 15-PGDH, the IC50 was determined as 4.23 nM. For the same compound, in the test with A549 cells, the “Fold increase of PGE2” value is on record as 2.95. In turn, `Cn1ncc2cc(N3CC4CC4c4cc(C(=O)N5CCC(F)(F)CC5)ccc43)cnc2c1=O` (stereo not drawn) [Compound I-14, 3-(6-(4,4-difluoropiperidine-1-carbonyl)-1,1a,2,7b-tetrahydro-3H-cyclopropa[c]quinolin-3-yl)-7-methylpyrido[2,3-d]pyridazin-8(7H)-one] had an IC50 against 15-PGDH of 8.6 nM. In the test on A549 cells, the “Fold increase of PGE2” value is on record as 2.3. Compound `Cn1ccc2cc(N3CC4CC4c4cc(C(=O)N5CCC(F)(F)CC5)cnc43)ccc2c1=O` (single isomer, unassigned) [Compound I-12A] returned an IC50 against 15-PGDH of 1.52 nM. For the compound `Cn1cnc2cc(N3CC4CC4c4cc(C(=O)N5CCC(F)(F)CC5)ccc43)cnc2c1=O` (stereo not drawn) [Compound I-15, 7-(6-(4,4-difluoropiperidine-1-carbonyl)-1,1a,2,7b-tetrahydro-3H-cyclopropa[c]quinolin-3-yl)-3-methylpyrido[3,2-d]pyrimidin-4(3H)-one], the half-maximal inhibitory concentration (IC50) at 15-PGDH was 5.7 nM. The “Fold increase of PGE2” value with A549 cells is given as 3.7.

Compound `Cn1nc2cc(N3CC4CC4c4cc(C(=O)N5CCC(F)(F)C5)cnc43)ccn2c1=O` (stereo not drawn) [Compound I-21, 7-(6-(3,3-difluoropyrrolidine-1-carbonyl)-1,1a,2,7b-tetrahydro-3H-cyclopropa[c][1,8]naphthyridin-3-yl)-2-methyl-[1,2,4]triazolo[4,3-a]pyridin-3(2H)-one] returned a 50% inhibitory concentration (IC50) on 15-PGDH of 4.95 nM. The “Fold increase of PGE2” value in the test with A549 cells worked out at 2.3.

For `[2H]C([2H])([2H])n1nc2cc(N3CC4CC4c4cc(C(=O)N5CCC(F)(F)CC5)cnc43)ccn2c1=O` (stereo not drawn) [Compound I-25, 7-(6-(4,4-difluoropiperidine-1-carbonyl)-1,1a,2,7b-tetrahydro-3H-cyclopropa[c][1,8]naphthyridin-3-yl)-2-(methyl-d3)-[1,2,4]triazolo[4,3-a]pyridin-3(2H)-one], the IC50 against 15-PGDH came to 2.59 nM. On 15-PGDH, `Cn1ccc2cc(N3CC4CC4c4cc(C(=O)N5CCC(F)(F)CC5)cnc43)ccc2c1=O` (single isomer, unassigned) [Compound I-12B] yielded an IC50 of 7.42 nM. For the compound `CN1Cc2cc(N3CC4CC4c4cc(C(=O)N5CCC(F)(F)CC5)cnc43)ccc2C1=O` (stereo not drawn) [Compound I-1, 5-(6-(4,4-difluoropiperidine-1-carbonyl)-1,1a,2,7b-tetrahydro-3H-cyclopropa[c][1,8]naphthyridin-3-yl)-2-methylisoindolin-1-one], the IC50 on 15-PGDH turned out to be 4.3 nM. Further, in the test with A549 cells, the “Fold increase of PGE2” value amounted to 4.3.

In turn, `O=C(c1cnc2c(c1)C1CC1CN2c1ccn2cnnc2c1)N1CCC(F)(F)CC1` (stereo not drawn) [Compound I-17, (3-([1,2,4]triazolo[4,3-a]pyridin-7-yl)-1a,2,3,7b-tetrahydro-1H-cyclopropa[c][1,8]naphthyridin-6-yl)(4,4-difluoropiperidin-1-yl)methanone] came in with an IC50 on 15-PGDH of 4.5 nM. Moreover, the “Fold increase of PGE2” value in the test on A549 cells stood at 2.2.

Compound `Cn1nc2cc(N3CC4CC4c4cc(C(=O)N5CCCC(C(F)(F)F)C5)cnc43)ccn2c1=O` (stereo not drawn) [Compound I-26, 2-methyl-7-(6-(3-(trifluoromethyl)piperidine-1-carbonyl)-1,1a,2,7b-tetrahydro-3H-cyclopropa[c] [1,8]naphthyridin-3-yl)-[1,2,4]triazolo[4,3-a]pyridin-3(2H)-one] came in with an IC50 against 15-PGDH of 9.9 nM. Also, the “Fold increase of PGE2” value in the test with A549 cells amounted to 4.82. On to `O=C(c1cnc2c(c1)C1CC1CN2c1ccn2ncnc2c1)N1CCC(F)(F)CC1` (stereo not drawn) [Compound I-16, (3-([1,2,4]triazolo[1,5-a]pyridin-7-yl)-1a,2,3,7b-tetrahydro-1H-cyclopropa[c][1,8]naphthyridin-6-yl)(4,4-difluoropiperidin-1-yl)methanone], for which, on 15-PGDH, the IC50 amounted to 5.4 nM. Besides, the “Fold increase of PGE2” value with A549 cells worked out at 3.7. For `CN1Cc2cc(N3CC4CC4c4cc(C(=O)N5CCC(F)(F)CC5)cnc43)ncc2C1=O` (stereo not drawn) [Compound I-18, 6-(6-(4,4-difluoropiperidine-1-carbonyl)-1,1a,2,7b-tetrahydro-3H-cyclopropa[c][1,8]naphthyridin-3-yl)-2-methyl-1,2-dihydro-3H-pyrrolo[3,4-c]pyridin-3-one], 20 nM corresponded to half-maximal inhibition against 15-PGDH (IC50). The compound `Cn1nc2cc(N3CC4CC4c4cc(C(=O)N5CCOCC5)cnc43)ccn2c1=O` (stereo not drawn) [Compound I-22, 2-methyl-7-(6-(morpholine-4-carbonyl)-1,1a,2,7b-tetrahydro-3H-cyclopropa[c][1,8]naphthyridin-3-yl)-[1,2,4]triazolo[4,3-a]pyridin-3(2H)-one] gave an IC50 against 15-PGDH of 10.2 nM.

As usually defined, the IC50 is the concentration that inhibits the measured activity by half. Low readings indicate greater potency, high ones weaker potency.

Source of the values: patent US20250034134A1, “15-PGDH INHIBITOR AND USE THEREOF” (Wuhan Humanwell Innovative Drug Research and Development …, priority 2021, published 2025).
